Ends that are not written are not given here.
Legend:
Type in all cases: binding, mouse
AN111 = assay: Cross-reactivity of ANP-related polypeptides in the α-hANP radioimmunoassay with AN111; details: ascitic fluid AN111A
Method: (§1) Using peptide and peptide fragment relating to α-hANP as a sample in α-hANP radioimmunoassay to be described in Example 5, cross reactivity was measured. It was confirmed that both of AN111 and AN117 recognize the C-terminus of α-hANP. Table 1 Assay buffer solution : 0.1 M phosphate buffer solution (pH 7.0) containing 0.372 g of disodium ethylenediamine tetraacetate, 0.063 g of cystine dihydrochloride, 0.262 g of ε-aminocaproic acid, 0.1g of sodium azide and 1 g of bovine serum albumin per liter. Dilute ascitic fluid : A[…] 110,000-fold diluted with Assay buffer solution or A[…] 62,000-fold diluted with Assay buffer solution. α-hANP standard : α-hANP serially two-fold diluted at a range of concentrations from 3.13 ng/ml to 100 ng/ml. 125 I -labelled α-hANP : 125I-labelled α-hANP (Amersham) diluted with Assay buffer solution up to approximately 3.7 KBq/ml. 1 % Bovine gamma globulin : dissolved in Assay buffer solution 37.5 % Polyethylene glycol : polyethylene glycol 6000 dissolved in Assay buffer solution without bovine serum albumin To a tube charged with 100 »l of α-hANP standard or a sample, 100 »l of 125I-labelled α-hANP, 100 »l of dilute ascitic fluid and 200 »l of 1 % bovine gamma globulin were added and the mixture was incubated overnight at 4 °C. […] After removing the supernatant, the radioactivity of the precipitate is measured by a gamma counter (Aloka, ARC-600 type)

AN117 = assay: Cross-reactivity of ANP-related polypeptides in the α-hANP radioimmunoassay with AN117; details: ascitic fluid AN117A
Method: as §1

[1] = test system: AN111 as an immobilized antibody, ¹²⁵I-labelled KY-ANP-I; assay: Cross-reactivity of ANP-related peptides in the sandwich radioimmunoassay (one-step); details: one-step assay, AN111 immobilized on beads
From the text: Anti-α-ANP [17-28] monoclonal antibody produced by the above hybridoma clone AN111 or AN117 (the antibody is hereinafter referred to as AN111 or AN117) which was immobilized on beads was used as an immobilized antibody. As a labelled antibody, anti-α-hANP [1 -28] monoclonal antibody produced by hybridoma clone KY-ANP-I (ECACC 87082001, EP-A-0 306 309) (the antibody is hereinafter referred to as KY-ANP-I) which was labelled with 125I was used. By the above antibodies, a sandwich radioimmunoassay of α-hANP was established. In 0.05 M phosphate buffer (pH 7.4) containing the IgG fraction (100 »g/ml) of A[…] or A[…] prepared in Item 1 above are immersed polystyrene beads (Ichico, 3.2 mm diameter) and allowed to stand at 4 °C for 20 hr. […] Radioactivity of 125 I -labelled antibody bound to the solid phase was measured by a gamma counter. A standard curve was prepared by plotting a concentration of α-hANP standard at abscissa and the measured radioactivity at ordinate. An ANP concentration in plasma was calculated by applying the radioactivity from the plasma sample to the standard curve. […]

## β-hANP: antiparallel dimer of α-hANP (SLRRSSCFGGRMDRIGAQSGLGCNSFRY; ends and bridges not checked; also: antiparallel dimer of α-hANP; UniProt P01160 124-151, looked up)
AN111
  Cross-reactivity (%) AN111: 142%
AN117
  Cross-reactivity (%) AN117: 136%
[1]
  Cross-Reactivity (Molar %): 100 Molar %

From patent EP0393640B1, “A monoclonal antibody recognizing C-terminus of ANP” (SHIONOGI SEIYAKU KABUSHIKI KAISHA trading under the name of …, priority 1989, dated 1990)
